Measurements: patent US20180298405A1, “METHODS AND COMPOSITIONS TO INCREASE HUMAN SOMATIC CELL NUCLEAR TRANSFER (SCNT) EFFICIENCY BY REMOVING HISTONE H3-LYSINE TRIMETHYLATION, AND DERIVATION OF HUMAN NT-ESC” (CHILDREN'S MEDICAL CENTER CORPORATION, priority 2015, published 2018)

Test system: reprogramming resistant regions (RRRs) / ZGA genes
Experiment: RNA-seq of late 8-cell human SCNT embryos with or without KDM4A mRNA injection (ZGA of RRRs, KDM4A-responsive genes)
Assay type: cell-based
Source text: A sliding window (size 20 kb, step size 10 kb) was used to assess the genome-wide expression level of 4-cell and 8-cell human embryos. For each window, the expression level was quantified with normalized RPM (reads per millions of uniquely mapped reads). […] These activated regions were classed into three groups based on their expression differences in human SCNT and IVF 8-cell embryos.
The SCNT embryos used for ZGA analysis were generated using oocytes donated by a single healthy person (#64) and dermal fibroblast cells from an AMD patient (DFB-8). SCNT and IVF embryos were cultured up to late 8-cell stage, when the compaction of blastomeres is initiated, then they were treated briefly with acid Tyrode solution to remove zona pellucida. To prepare for the 8-cell SCNT embryo, oocytes from a single oocyte donor, and skin fibroblast cells from a single somatic nuclear donor were used. All the procedures are the same as described in the “Human SCNT procedure and KMD4A mRNA injection” section. Only embryos that reached the late 8-cell stage synchronically 74 hours post activation were collected and used for this experiment.
For preparation of the control IVF embryos, several donated early 8-cell stage IVF embryos were thawed and cultured for 5-7 hours to allow them to reach late 8-cell stage before being processed. After removal of the zona pellucida, the denuded embryos were washed 3 times in PBS, loaded into RNAse and DNAse free PCR tubes, spin downed, and snap frozen in liquid nitrogen. Then, they were kept at −80° C. until use. As controls, dermal fibroblast cells of somatic nuclear donors were also prepared. Those fibroblast cells were cultured in a 25 cm^2 flask in DMEM 10% FBS, and approximately 10,000 cells/donor were collected, snap frozen, and stored at −80° C. until use.
Five 8-cell embryos for each group were directly lysed and used for cDNA synthesis using SMART-Seq v4 Ultra Low Input RNA Kit (Clontech). For MEF donor, 10 ng total RNA was used for cDNA synthesis using SMART-Seq v4 Ultra Low Input RNA Kit. After amplification, the cDNA samples were fragmented using Covaris sonicator M220 to an average size of 150 bp (Covaris). Sequencing libraries were made with the fragmented DNA using NEBNext Ultra DNA Library Prep Kit for Illumina according to manufacturer's instruction (New England Biolabs) with different barcodes. For each RNA-seq analysis of hESCs, 1 μg total RNA was used for mRNA purification. Barcoded RNA-seq libraries were generated using NEBNext Ultra Directional RNA Library Prep Kit for Illumina (New England Biolabs). Single end 50 bp sequencing was performed on a HiSeq 2500 sequencer (Illumina). Sequencing reads were mapped to the human genome (hg19) with Tophat2. All programs were performed with default settings (unless otherwise specified). At least 22 million uniquely mapped reads were obtained for each sequencing library, and subsequently assembled into transcripts guided by the reference annotation (Refseq gene models) with Cufflinks v2.0.2. Expression level of each gene was quantified with normalized FPKM (fragments per kilobase of exon per million mapped fragments). Statistical analyses were performed with R (available at: “www.r-project.org/”). Independent 2 group Wilcoxon rank sum tests were used to compare distributions using the wilcox.test function in R. Pearson's r coefficient was calculated using the cor function with default parameters. The hierarchical clustering analysis of the global gene expression pattern in different samples was carried out using heatmap.2 function (gplots package) in R.

KDM4A mRNA: in vitro transcribed mRNA of full length human KDM4A/JHDM3A cDNA, an H3K9me3 demethylase (SEQ ID NO: 1)
ZNF826P Fold Change (log2) [KDM4A SCNT/Control SCNT] (8-cell embryos): 2.67 log2
ZNHIT6 Fold Change (log2) [KDM4A SCNT/Control SCNT] (8-cell embryos): 1.58 log2
12-Sep Expression level (FPKM) (KDM4A SCNT 8-cell embryos): 0.3 FPKM
AASDH Expression level (FPKM) (KDM4A SCNT 8-cell embryos): 2.84 FPKM
ACBD5 Expression level (FPKM) (KDM4A SCNT 8-cell embryos): 1.62 FPKM
ALG5 Expression level (FPKM) (KDM4A SCNT 8-cell embryos): 9.71 FPKM
ALPPL2 Expression level (FPKM) (KDM4A SCNT 8-cell embryos): 3.65 FPKM
APOC1P1 Expression level (FPKM) (KDM4A SCNT 8-cell embryos): 0.43 FPKM
ATP5J2-PTCD1 Expression level (FPKM) (KDM4A SCNT 8-cell embryos): 4.51 FPKM
BEX2 Expression level (FPKM) (KDM4A SCNT 8-cell embryos): 2.68 FPKM
BLVRB Expression level (FPKM) (KDM4A SCNT 8-cell embryos): 2.11 FPKM
BTAF1 Expression level (FPKM) (KDM4A SCNT 8-cell embryos): 1.46 FPKM
BTK Expression level (FPKM) (KDM4A SCNT 8-cell embryos): 1.67 FPKM
BUD31 Expression level (FPKM) (KDM4A SCNT 8-cell embryos): 76.07 FPKM
C1D Expression level (FPKM) (KDM4A SCNT 8-cell embryos): 97 FPKM
C2orf74 Expression level (FPKM) (KDM4A SCNT 8-cell embryos): 0.41 FPKM
C11orf67 Expression level (FPKM) (KDM4A SCNT 8-cell embryos): 28.21 FPKM
C12orf60 Expression level (FPKM) (KDM4A SCNT 8-cell embryos): 46.22 FPKM
C16orf91 Expression level (FPKM) (KDM4A SCNT 8-cell embryos): 9.96 FPKM
C17orf89 Expression level (FPKM) (KDM4A SCNT 8-cell embryos): 0.75 FPKM
C18orf56 Expression level (FPKM) (KDM4A SCNT 8-cell embryos): 0.33 FPKM
C20orf7 Expression level (FPKM) (KDM4A SCNT 8-cell embryos): 2.28 FPKM
CAB39L Expression level (FPKM) (KDM4A SCNT 8-cell embryos): 4.06 FPKM
CCAR1 Expression level (FPKM) (KDM4A SCNT 8-cell embryos): 4.62 FPKM
CCDC86 Expression level (FPKM) (KDM4A SCNT 8-cell embryos): 2.88 FPKM
CCL2 Expression level (FPKM) (KDM4A SCNT 8-cell embryos): 6.1 FPKM
CCL15 Expression level (FPKM) (KDM4A SCNT 8-cell embryos): 0.89 FPKM
CELA3B Expression level (FPKM) (KDM4A SCNT 8-cell embryos): 0.49 FPKM
CENPC1 Expression level (FPKM) (KDM4A SCNT 8-cell embryos): 7.41 FPKM
CLC Expression level (FPKM) (KDM4A SCNT 8-cell embryos): 13.82 FPKM
CLDN6 Expression level (FPKM) (KDM4A SCNT 8-cell embryos): 3.54 FPKM
CLK4 Expression level (FPKM) (KDM4A SCNT 8-cell embryos): 19.9 FPKM
CNKSR3 Expression level (FPKM) (KDM4A SCNT 8-cell embryos): 0.29 FPKM
CNPY4 Expression level (FPKM) (KDM4A SCNT 8-cell embryos): 5.19 FPKM
COX7B2 Expression level (FPKM) (KDM4A SCNT 8-cell embryos): 0.79 FPKM
COX17 Expression level (FPKM) (KDM4A SCNT 8-cell embryos): 26.62 FPKM
CSAG1 Expression level (FPKM) (KDM4A SCNT 8-cell embryos): 2.22 FPKM
CSTF3 Expression level (FPKM) (KDM4A SCNT 8-cell embryos): 28.96 FPKM
CUL2 Expression level (FPKM) (KDM4A SCNT 8-cell embryos): 14.32 FPKM
CXorf61 Expression level (FPKM) (KDM4A SCNT 8-cell embryos): 0.85 FPKM
DDX26B Expression level (FPKM) (KDM4A SCNT 8-cell embryos): 1.77 FPKM
DEFB122 Expression level (FPKM) (KDM4A SCNT 8-cell embryos): 0.61 FPKM
DLEU7 Expression level (FPKM) (KDM4A SCNT 8-cell embryos): 2.91 FPKM
DNASE2 Expression level (FPKM) (KDM4A SCNT 8-cell embryos): 0.61 FPKM
DRAM1 Expression level (FPKM) (KDM4A SCNT 8-cell embryos): 0.63 FPKM
ECE2 Expression level (FPKM) (KDM4A SCNT 8-cell embryos): 1.18 FPKM
EIF1AD Expression level (FPKM) (KDM4A SCNT 8-cell embryos): 9.43 FPKM
ELL2 Expression level (FPKM) (KDM4A SCNT 8-cell embryos): 1.39 FPKM
FAM9A Expression level (FPKM) (KDM4A SCNT 8-cell embryos): 1.32 FPKM
FAM19A3 Expression level (FPKM) (KDM4A SCNT 8-cell embryos): 1.7 FPKM
FAM83D Expression level (FPKM) (KDM4A SCNT 8-cell embryos): 2.53 FPKM
FAM133B Expression level (FPKM) (KDM4A SCNT 8-cell embryos): 6.06 FPKM
FAM151A Expression level (FPKM) (KDM4A SCNT 8-cell embryos): 1.01 FPKM
FAM162A Expression level (FPKM) (KDM4A SCNT 8-cell embryos): 19.35 FPKM
FAM200A Expression level (FPKM) (KDM4A SCNT 8-cell embryos): 1.23 FPKM
FASTKD5 Expression level (FPKM) (KDM4A SCNT 8-cell embryos): 4.41 FPKM
FBXL12 Expression level (FPKM) (KDM4A SCNT 8-cell embryos): 1.8 FPKM
FMR1NB Expression level (FPKM) (KDM4A SCNT 8-cell embryos): 0.18 FPKM
FOXN2 Expression level (FPKM) (KDM4A SCNT 8-cell embryos): 5.53 FPKM
GALM Expression level (FPKM) (KDM4A SCNT 8-cell embryos): 3.67 FPKM
GIP Expression level (FPKM) (KDM4A SCNT 8-cell embryos): 12.94 FPKM
GJA1 Expression level (FPKM) (KDM4A SCNT 8-cell embryos): 1.64 FPKM
GOLGB1 Expression level (FPKM) (KDM4A SCNT 8-cell embryos): 1.36 FPKM
GUCA1B Expression level (FPKM) (KDM4A SCNT 8-cell embryos): 0.83 FPKM
GUSBP1 Expression level (FPKM) (KDM4A SCNT 8-cell embryos): 7.96 FPKM
GUSBP4 Expression level (FPKM) (KDM4A SCNT 8-cell embryos): 2.42 FPKM
H3F3A Expression level (FPKM) (KDM4A SCNT 8-cell embryos): 14.47 FPKM
IFI30 Expression level (FPKM) (KDM4A SCNT 8-cell embryos): 25.62 FPKM
IL13RA2 Expression level (FPKM) (KDM4A SCNT 8-cell embryos): 0.26 FPKM
KHDC1 Expression level (FPKM) (KDM4A SCNT 8-cell embryos): 85.25 FPKM
KHDC1L Expression level (FPKM) (KDM4A SCNT 8-cell embryos): 668.53 FPKM
KITLG Expression level (FPKM) (KDM4A SCNT 8-cell embryos): 0.93 FPKM
KLF17 Expression level (FPKM) (KDM4A SCNT 8-cell embryos): 8.4 FPKM
KLK4 Expression level (FPKM) (KDM4A SCNT 8-cell embryos): 1.41 FPKM
KLK11 Expression level (FPKM) (KDM4A SCNT 8-cell embryos): 7.07 FPKM
KPTN Expression level (FPKM) (KDM4A SCNT 8-cell embryos): 6.84 FPKM
LARP6 Expression level (FPKM) (KDM4A SCNT 8-cell embryos): 0.41 FPKM
LEMD3 Expression level (FPKM) (KDM4A SCNT 8-cell embryos): 0.59 FPKM
LIM2 Expression level (FPKM) (KDM4A SCNT 8-cell embryos): 2.01 FPKM
LINC00263 Expression level (FPKM) (KDM4A SCNT 8-cell embryos): 3.81 FPKM
LOC284408 Expression level (FPKM) (KDM4A SCNT 8-cell embryos): 1.36 FPKM
LOC347411 Expression level (FPKM) (KDM4A SCNT 8-cell embryos): 1.62 FPKM
LOC401397 Expression level (FPKM) (KDM4A SCNT 8-cell embryos): 11.19 FPKM
LOC643955 Expression level (FPKM) (KDM4A SCNT 8-cell embryos): 3.18 FPKM
LOC653513 Expression level (FPKM) (KDM4A SCNT 8-cell embryos): 1.03 FPKM
LOC723809 Expression level (FPKM) (KDM4A SCNT 8-cell embryos): 3.84 FPKM
LOC100129515 Expression level (FPKM) (KDM4A SCNT 8-cell embryos): 9.35 FPKM
LOC100289211 Expression level (FPKM) (KDM4A SCNT 8-cell embryos): 8.18 FPKM
LOC100505854 Expression level (FPKM) (KDM4A SCNT 8-cell embryos): 4.77 FPKM
LOC100506305 Expression level (FPKM) (KDM4A SCNT 8-cell embryos): 0.91 FPKM
LOC100506668 Expression level (FPKM) (KDM4A SCNT 8-cell embryos): 8.79 FPKM
LUC7L Expression level (FPKM) (KDM4A SCNT 8-cell embryos): 2.91 FPKM
M1 Expression level (FPKM) (KDM4A SCNT 8-cell embryos): 2.52 FPKM
MAGEA12 Expression level (FPKM) (KDM4A SCNT 8-cell embryos): 0.25 FPKM
MAGEB2 Expression level (FPKM) (KDM4A SCNT 8-cell embryos): 0.79 FPKM
MATR3 Expression level (FPKM) (KDM4A SCNT 8-cell embryos): 9.43 FPKM
MED31 Expression level (FPKM) (KDM4A SCNT 8-cell embryos): 27.22 FPKM
MFSD11 Expression level (FPKM) (KDM4A SCNT 8-cell embryos): 7.94 FPKM
MPV17L2 Expression level (FPKM) (KDM4A SCNT 8-cell embryos): 4.48 FPKM
MRPL28 Expression level (FPKM) (KDM4A SCNT 8-cell embryos): 1.56 FPKM
MTERF Expression level (FPKM) (KDM4A SCNT 8-cell embryos): 3.15 FPKM
NANOGNB Expression level (FPKM) (KDM4A SCNT 8-cell embryos): 30.92 FPKM
NDUFAF2 Expression level (FPKM) (KDM4A SCNT 8-cell embryos): 6.37 FPKM
NMNAT1 Expression level (FPKM) (KDM4A SCNT 8-cell embryos): 3.71 FPKM
